{"source": "patent US20040076974A1", "about": "“Liver necrosis predictive genes” (priority 2002, published 2004)", "key": {"Sprague Dawley rats": {"system": "Sprague Dawley rats", "conditions": "rat", "outline": "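Toxicity calls (necrosis present or absent at 72 h) and histopathology scores were correlated with tissue gene expression from Crl:CD Sprague Dawley rats. Animals, usually 3 treated with compound by i.p. route and 3 given vehicle, were killed at 6, 24 or 72 h and tissues frozen immediately in liquid nitrogen.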"}, "Male Sprague-Dawley rats": {"system": "Male Sprague-Dawley rats", "assay_type": "in vivo, rat", "conditions": "intraperitoneal injection"}, "[1]": {"system": "toxicologically relevant rat genes (rat CT array)", "conditions": "rat, in vivo"}}, "note": "Like-named read-outs stand apart in the source and are kept apart here.", "data": [{"smiles": "S=C=Nc1cccc2ccccc12", "note": "[1-naphthylisothiocyanate]", "values": [{"measurement": "toxicity at the high dose", "setting": "Sprague Dawley rats; high dose of Table 1, liver necrosis at 72 hours", "result": "produced toxicity"}, {"measurement": "Liver Necrosis", "setting": "Sprague Dawley rats; intraperitoneal, dose 15 mgkg, 72 hours after treatment", "result": "no"}, {"measurement": "Score (histopathology liver necrosis severity score)", "setting": "Sprague Dawley rats; intraperitoneal, dose 15 mgkg, 72 hours, 1 = not remarkable, 2 and higher increasing severity", "result": 1}, {"measurement": "Liver Necrosis", "setting": "Sprague Dawley rats; intraperitoneal, dose 60 mgkg, 72 hours after treatment", "result": "Yes"}, {"measurement": "Score (histopathology liver necrosis severity score)", "setting": "Sprague Dawley rats; intraperitoneal, dose 60 mgkg, 72 hours, 1 = not remarkable, 2 and higher increasing severity", "result": 2}, {"measurement": "hepatocellular necrosis by histopathology", "setting": "Male Sprague-Dawley rats; 100 mg/kg", "result": "induced hepatocellular necrosis"}]}, {"smiles": "CN(C)[C@@H]1C(O)=C(C(N)=O)C(=O)[C@@]2(O)C(O)=C3C(=O)c4c(O)cccc4[C@@](C)(O)[C@H]3C[C@@H]12", "note": "[tetracycline]", "values": [{"measurement": "toxicity at the high dose", "setting": "Sprague Dawley rats; in vivo", "result": "produced toxicity"}, {"measurement": "toxicity at the low dose", "setting": "Sprague Dawley rats; in vivo", "result": "not at the low dose"}, {"measurement": "Liver Necrosis", "setting": "Sprague Dawley rats; in vivo, ip, 50 mg/kg", "result": "no"}, {"measurement": "Score (histopathology liver necrosis severity score)", "setting": "Sprague Dawley rats; in vivo, ip, 50 mg/kg", "result": 1}, {"measurement": "Liver Necrosis", "setting": "Sprague Dawley rats; in vivo, ip, 150 mg/kg", "result": "Yes"}, {"measurement": "Score (histopathology liver necrosis severity score)", "setting": "Sprague Dawley rats; in vivo, ip, 150 mg/kg", "result": 2}, {"measurement": "14-3-3 zeta expression", "setting": "[1]", "result": 0.7335}, {"measurement": "60S ribosomal protein L6 expression", "setting": "[1]", "result": 1.38}, {"measurement": "Adenine nucleotide translocator 1 expression", "setting": "[1]", "result": 1.332}, {"measurement": "Alpha-1 microglobulin/bikunin precursor (Ambp) expression", "setting": "[1]", "result": 1.73}, {"measurement": "Alpha-2-macroglobulin, sequence 2 expression", "setting": "[1]", "result": 1.2}, {"measurement": "Alpha-2-microglobulin expression", "setting": "[1]", "result": 0.5107}, {"measurement": "Alpha-prothymosin expression", "setting": "[1]", "result": 1.454}, {"measurement": "Alpha-tubulin expression", "setting": "[1]", "result": 0.9701}, {"measurement": "Apolipoprotein AII expression", "setting": "[1]", "result": 0.2962}, {"measurement": "Apolipoprotein C1 expression", "setting": "[1]", "result": 1.791}, {"measurement": "Aquaporin-3 (AQP3) expression", "setting": "[1]", "result": 0.9307}, {"measurement": "Beta-actin expression", "setting": "[1]", "result": 0.78}, {"measurement": "Beta-actin, sequence 2 expression", "setting": "[1]", "result": 0.5941}, {"measurement": "Beta-tubulin, class I expression", "setting": "[1]", "result": 0.7321}, {"measurement": "Betaine homocysteine methyltransferase (BHMT) expression", "setting": "[1]", "result": 0.2575}, {"measurement": "Biliverdin reductase expression", "setting": "[1]", "result": 0.7455}, {"measurement": "CDK108 expression", "setting": "[1]", "result": 0.7153}, {"measurement": "Calpactin I heavy chain expression", "setting": "[1]", "result": 1.165}, {"measurement": "Calpain 2 expression", "setting": "[1]", "result": 1.216}, {"measurement": "Cathepsin L, sequence 2 expression", "setting": "[1]", "result": 1.097}, {"measurement": "Cathepsin S expression", "setting": "[1]", "result": 1.473}, {"measurement": "Cholesterol esterase expression", "setting": "[1]", "result": 0.955}, {"measurement": "Cofilin expression", "setting": "[1]", "result": 1.77}, {"measurement": "Collagen type II expression", "setting": "[1]", "result": 1.355}, {"measurement": "Cyclin D1 expression", "setting": "[1]", "result": 1.265}, {"measurement": "Cystatin C expression", "setting": "[1]", "result": 1.57}, {"measurement": "Cytochrome P450 2A3 expression", "setting": "[1]", "result": 0.8495}, {"measurement": "Cytochrome P450 2C11 expression", "setting": "[1]", "result": 0.8002}, {"measurement": "Cytochrome P450 2C23 expression", "setting": "[1]", "result": 1.592}, {"measurement": "Dynamin-1 (D100) expression", "setting": "[1]", "result": 0.9613}, {"measurement": "Elongation factor-1 alpha expression", "setting": "[1]", "result": 1.049}, {"measurement": "Equilbrative nitrobenzylthioinosine-sensitive nucleoside transporter expression", "setting": "[1]", "result": 1.39}, {"measurement": "F1-ATPase beta subunit expression", "setting": "[1]", "result": 1.072}, {"measurement": "Fatty acid synthase expression", "setting": "[1]", "result": 0.837}, {"measurement": "Gamma-actin, cytoplasmic expression", "setting": "[1]", "result": 1.057}, {"measurement": "Glutathione S-transferase theta-1 expression", "setting": "[1]", "result": 1.085}, {"measurement": "Glycine methyltransferase expression", "setting": "[1]", "result": 0.5811}, {"measurement": "Heme oxygenase expression", "setting": "[1]", "result": 1.421}, {"measurement": "High affinity IgE receptor gamma chain (FcERIgamma) expression", "setting": "[1]", "result": 1.193}, {"measurement": "Hypoxanthine-guanine phosphoribosyltransferase expression", "setting": "[1]", "result": 0.7473}, {"measurement": "IgE binding protein expression", "setting": "[1]", "result": 1.055}, {"measurement": "Insulin-like growth factor I, exon 6 expression", "setting": "[1]", "result": 0.8256}, {"measurement": "JNK1 stress activated protein kinase expression", "setting": "[1]", "result": 0.6582}, {"measurement": "Melanoma-associated antigen ME491 expression", "setting": "[1]", "result": 1.77}, {"measurement": "Multidrug resistant protein-1 expression", "setting": "[1]", "result": 1.041}, {"measurement": "Multidrug resistant protein-2 expression", "setting": "[1]", "result": 0.8907}, {"measurement": "N-hydroxy-2-acetylaminofluorene sulfotransferase (ST1C1) expression", "setting": "[1]", "result": 1.531}, {"measurement": "NADP-dependent isocitrate dehydrogenase, cytosolic expression", "setting": "[1]", "result": 1.608}, {"measurement": "NIPK expression", "setting": "[1]", "result": 0.7421}, {"measurement": "Nucleoside diphosphate kinase beta isoform expression", "setting": "[1]", "result": 1.032}, {"measurement": "Organic cation transporter 3 expression", "setting": "[1]", "result": 1.233}, {"measurement": "Ornithine decarboxylase expression", "setting": "[1]", "result": 0.9438}, {"measurement": "Osteoactivin expression", "setting": "[1]", "result": 1.112}, {"measurement": "Paraoxonase 1 expression", "setting": "[1]", "result": 2.144}, {"measurement": "Phase-1 RCT-24 expression", "setting": "[1]", "result": 0.8327}, {"measurement": "Phase-1 RCT-36 expression", "setting": "[1]", "result": 0.8652}, {"measurement": "Phase-1 RCT-43 expression", "setting": "[1]", "result": 1.003}, {"measurement": "Phase-1 RCT-58 expression", "setting": "[1]", "result": 1.737}, {"measurement": "Phase-1 RCT-109 expression", "setting": "[1]", "result": 0.5933}, {"measurement": "Phase-1 RCT-117 expression", "setting": "[1]", "result": 0.8447}, {"measurement": "Phase-1 RCT-146 expression", "setting": "[1]", "result": 0.9475}, {"measurement": "Phase-1 RCT-149 expression", "setting": "[1]", "result": 0.6559}, {"measurement": "Phase-1 RCT-173 expression", "setting": "[1]", "result": 0.5698}, {"measurement": "Phase-1 RCT-179 expression", "setting": "[1]", "result": 1.528}, {"measurement": "Phase-1 RCT-207 expression", "setting": "[1]", "result": 0.6995}, {"measurement": "Phase-1 RCT-211 expression", "setting": "[1]", "result": 0.6151}, {"measurement": "Phase-1 RCT-227 expression", "setting": "[1]", "result": 1.846}, {"measurement": "Phase-1 RCT-290 expression", "setting": "[1]", "result": 0.417}, {"measurement": "Poly(ADP-ribose) polymerase expression", "setting": "[1]", "result": 0.9896}, {"measurement": "Presenilin-1 expression", "setting": "[1]", "result": 2.114}, {"measurement": "Protein tyrosine phosphatase, receptor type, D expression", "setting": "[1]", "result": 1.295}, {"measurement": "Pyruvate kinase, muscle expression", "setting": "[1]", "result": 0.6785}, {"measurement": "Ribosomal protein L13A expression", "setting": "[1]", "result": 0.6452}, {"measurement": "Ribosomal protein S9 expression", "setting": "[1]", "result": 1.161}, {"measurement": "Ribosomal protein S17 expression", "setting": "[1]", "result": 1.358}, {"measurement": "Stathmin expression", "setting": "[1]", "result": 0.7954}, {"measurement": "Stearyl-CoA desaturase, liver expression", "setting": "[1]", "result": 0.1376}, {"measurement": "Thioredoxin-1 (Trx1) expression", "setting": "[1]", "result": 0.7172}, {"measurement": "Thymosin beta-10 expression", "setting": "[1]", "result": 0.6534}, {"measurement": "Tissue plasminogen activator expression", "setting": "[1]", "result": 0.9708}, {"measurement": "Transitional endoplasmic reticulum ATPase expression", "setting": "[1]", "result": 1.373}, {"measurement": "Ubiquitin conjugating enzyme (RAD 6 homologue) expression", "setting": "[1]", "result": 1.177}, {"measurement": "Uncoupling protein 2 expression", "setting": "[1]", "result": 0.7333}, {"measurement": "Zinc finger protein expression", "setting": "[1]", "result": 1.116}, {"measurement": "alpha-1,2-fucosyltransferase expression", "setting": "[1]", "result": 0.495}, {"measurement": "p55CDC expression", "setting": "[1]", "result": 0.9757}, {"measurement": "{Phase-1 RCT 98} expression", "setting": "[1]", "result": 1.16}, {"measurement": "{Ribosomal protein 16} expression", "setting": "[1]", "result": 1.197}]}, {"smiles": "CC(=N)S", "note": "[thioacetamide]", "values": [{"measurement": "hepatocellular necrosis by histopathology", "setting": "Male Sprague-Dawley rats; 200 mg/kg", "result": "induced hepatocellular necrosis"}]}]}
